This note sets out measurements from patent US10688093B2, “Methods, compositions, and uses of novel Fyn kinase inhibitors” (priority 2015, dated 2020).

A word on the IC50: it is the midpoint of a concentration-inhibition curve.

Chain of full-length recombinant human FYN A (P06241 whole entry): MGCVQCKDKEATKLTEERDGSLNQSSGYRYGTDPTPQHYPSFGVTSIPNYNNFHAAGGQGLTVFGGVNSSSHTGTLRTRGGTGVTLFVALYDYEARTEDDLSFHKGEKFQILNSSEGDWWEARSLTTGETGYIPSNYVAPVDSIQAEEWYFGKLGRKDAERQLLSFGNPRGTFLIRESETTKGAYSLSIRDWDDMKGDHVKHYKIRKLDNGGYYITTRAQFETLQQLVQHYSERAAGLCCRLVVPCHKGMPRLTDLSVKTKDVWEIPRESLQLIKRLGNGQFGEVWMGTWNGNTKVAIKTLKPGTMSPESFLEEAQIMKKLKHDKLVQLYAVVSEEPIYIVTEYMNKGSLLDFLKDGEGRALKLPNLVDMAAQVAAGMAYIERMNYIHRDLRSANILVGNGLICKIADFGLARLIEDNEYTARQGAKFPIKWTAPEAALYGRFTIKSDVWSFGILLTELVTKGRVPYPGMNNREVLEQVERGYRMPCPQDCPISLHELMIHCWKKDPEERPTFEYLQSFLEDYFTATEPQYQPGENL

The assay addresses full-length recombinant human FYN A (Homo sapiens (Human), UniProt P06241). Briefly: ADP-Glo Kinase Assay of FYN kinase inhibition. Type of assay: biochemical. As to conditions: primary screen, initial compounds. A digest of the protocol:
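ADP-Glo read-out of peptide phosphorylation after 90 min RT with 12.5 pmol ATP and 100 pg 12-mer substrate. Enzyme was N-GST full-length human FYN A from insect cells, 3 pg, pre-incubated 30 min with compound, 10 points from 10 μM top, 3-fold steps; IC50 from curve.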
For orientation: ADP-Glo first removes unused ATP, then detects ADP through luciferase.
As to `c1cncc(-c2n[nH]c3nccc(-c4ccoc4)c23)c1` [Compound 518, 4-(3-furyl)-3-(3-pyridyl)-1H-pyrazolo[3,4-b]pyridine], the IC50 is 14.3 µM.

For the molecule `COc1cc(-c2n[nH]c3nccc(-c4ccc(CO)cc4)c23)cc(OC)c1OC` [Compound 519, [4-[3-(3,4,5-trimethoxy-phenyl)-1H-pyrazolo[3,4-b]pyridin-4-yl]phenyl] methanol], the IC50 was found to be 5.38 µM.

In the case of `COc1cccc(-c2ccnc3[nH]nc(C4CCNCC4)c23)c1` [Compound 520, 4-(3-methoxyphenyl)-3-(4-piperidyl)-1H-pyrazolo[3,4-b]pyridine], the IC50 came out at 17.6 µM.

As for `COc1ccccc1-c1n[nH]c2nccc(-c3ccc(C#N)cc3)c12` [Compound 521, 4-[3-(2-methoxyphenyl)-1H-pyrazolo[3,4-b]pyridin-4-yl]benzonitrile], the IC50 is 1.58 µM.

For `COc1cc(-c2n[nH]c3nccc(-c4ccc(C(=O)N(C)C)cc4)c23)cc(OC)c1OC` [Compound 522, N,N-dimethyl-4-[3-(3,4,5-trimethoxy-phenyl)-1H-pyrazolo[3,4-b]pyridin-4-yl]benzamide], the IC50 turned out to be 11.1 µM.

On to `OCc1ccc(-c2ccnc3[nH]nc(-c4ccc5c(c4)OCO5)c23)cc1` [Compound 523, [4-[3-(1,3-benzodioxol-5-yl)-1H-pyrazolo[3,4-b]pyridin-4-yl]phenyl] methanol], for which the IC50 was 4.64 µM.

On to `COc1ccc(F)cc1-c1ccnc2[nH]nc(C3CCNCC3)c12` [Compound 524, 4-(5-fluoro-2-methoxy-phenyl)-3-(4-piperidyl)-1H-pyrazolo[3,4-b]pyridine], for which the IC50 came out at 11.7 µM.

`COc1cc(-c2n[nH]c3nccc(-c4ccc(S(C)(=O)=O)cc4)c23)cc(OC)c1OC` [Compound 525, 4-(4-methylsulfonyl-phenyl)-3-(3,4,5-trimethoxy-phenyl)-1H-pyrazolo[3,4-b]pyridlne]: the IC50 stood at 11.2 µM.

Regarding `OCc1ccc(-c2ccnc3[nH]nc(-c4cccc(Cl)c4)c23)cc1` [Compound 526, [4-[3-(3-chlorophenyl)-1H-pyrazolo[3,4-b]pyridin-4-yl]phenyl] methanol], the IC50 is 6.5 µM.

`OCc1cccc(-c2ccnc3[nH]nc(-c4ccc5c(c4)OCO5)c23)c1` [Compound 527, [3-[3-(1,3-benzodioxol-5-yl)-1H-pyrazolo[3,4-b]pyridin-4-yl]phenyl] methanol]: the IC50 was 3.09 µM.

For `c1ccc(-c2n[nH]c3nccc(-c4ccoc4)c23)cc1` [Compound 528, 4-(3-furyl)-3-phenyl-1H-pyrazolo[3,4-b]pyridine], the IC50 turned out to be 8.63 µM.

Turning to `COc1ccc(-c2ccnc3[nH]nc(-c4cc(OC)c(OC)c(OC)c4)c23)cn1` [Compound 529, 4-(6-methoxy-3-pyridyl)-3-(3,4,5-trimethoxy-phenyl)-1H-pyrazolo[3,4-b]pyridine], the IC50 was determined as 16.9 µM.

`c1coc(-c2ccnc3[nH]nc(C4CC4)c23)c1` [Compound 530, 3-cyclopropyl-4-(2-furyl)-1H-pyrazolo[3,4-b]pyridine]: the IC50 amounted to 12.6 µM.

As for `COc1ccccc1-c1n[nH]c2nccc(-c3ccco3)c12` [Compound 531, 4-(2-furyl)-3-(2-methoxyphenyl)-1H-pyrazolo[3,4-b]pyridine], the 50% inhibitory concentration (IC50) came to 2.28 µM.

As to `COc1ccccc1-c1n[nH]c2nccc(-c3ccc(CO)cc3)c12` [Compound 532, [4-[3-(2-methoxyphenyl)-1H-pyrazolo[3,4-b]pyridin-4-yl]phenyl] methanol], the IC50 is 1.1 µM.

`COc1ccccc1-c1n[nH]c2nccc(-c3cccc(C(C)=O)c3)c12` [Compound 533, 1-[3-[3-(2-methoxyphenyl)-1H-pyrazolo[3,4-b]pyridin-4-yl]phenyl] ethanone]: the IC50 was determined as 6.6 µM.

`c1cc(-c2n[nH]c3nccc(-c4ccoc4)c23)ccn1` [Compound 534, 4-(3-furyl)-3-(4-pyridyl)-1H-pyrazolo[3,4-b]pyridine]: the IC50 is 20.2 µM.

As for `Nc1cccc(-c2ccnc3[nH]nc(-c4cccc(F)c4)c23)c1` [Compound 535, 3-[3-(3-fluorophenyl)-1H-pyrazolo[3,4-b]pyridin-4-yl]aniline], the IC50 was 15.1 µM.

For the molecule `NC(=O)c1cccc(-c2ccnc3[nH]nc(-c4ccccc4)c23)c1` [Compound 536, 3-(3-phenyl-1H-pyrazolo[3,4-b]pyridin-4-yl)benzamide], the IC50 worked out at 11.7 µM.

On to `COc1cc(-c2n[nH]c3nccc(-c4cccc(N)c4)c23)cc(OC)c1OC` [Compound 537, 3-[3-(3,4,5-trimethoxy-phenyl)-1H-pyrazolo[3,4-b]pyridin-4-yl]aniline], for which the IC50 was found to be 14.8 µM.

For `COc1cc(-c2n[nH]c3nccc(-c4cccc(F)c4)c23)cc(OC)c1OC` [Compound 538, 4-(3-fluorophenyl)-3-(3,4,5-trimethoxy-phenyl)-1H-pyrazolo[3,4-b]pyridine], the IC50 is 5.23 µM.

For `O=C(O)/C=C/c1cccc(-c2cnn3ccc(NCc4cccnc4)nc23)c1` [Compound 539, (E)-3-[3-[5-(3-pyridylmethyl-amino)pyrazolo [1,5-a]pyrimidin-3-yl]phenyl]prop-2-enoic acid], the IC50 came out at 2.27 µM.

For the molecule `COc1cc(-c2cc(-c3cccc(C(N)=O)c3)cnc2N)cc(OC)c1OC` [Compound 540, 3-[6-amino-5-(3,4,5-trimethoxy-phenyl)-3-pyridyl] benzamide], the IC50 stood at 0.442 µM.

On to `CC(=O)c1ccc(-c2cnc(N)c(-c3cccc(N(C)C)c3)c2)s1` [Compound 541, 1-[5-[6-amino-5-[3-(dimethyl-amino)phenyl]-3-pyridyl]-2-thienyl]ethanone], for which the IC50 came out at 3.42 µM.

For `CNc1ccc2ncc(/C=C\CCCO)n2n1` [Compound 542, (Z)-5-[6-(methylamino)imidazo[1,2-b]pyridazin-3-yl]pent-4-en-1-ol], the half-inhibitory concentration (IC50) was found to be 31.5 µM.

For `COc1cc(-c2cnc3sc(NCC4CCOCC4)nn23)ccc1O` [Compound 543, 2-methoxy-4-[2-(tetrahydropyran-4-ylmethyl-amino)imidazo [2,1-b][1,3,4]thiadiazo-5-yl]phenol], the IC50 turned out to be 2.16 µM.

For the molecule `COc1ccc(-c2cnc3c(NC(C)=O)cc(-c4cccc(NC(C)=O)c4)cn23)cc1OC` [Compound 544, N-[3-[8-acetamido-3-(3,4-dimethoxy-phenyl)imidazo [1,2-a]pyridin-6-yl]phenyl] acetamide], the half-inhibitory concentration (IC50) worked out at 1.6 µM.

As for `COc1cccc(-c2cc(NC(C)=O)c3ncc(-c4cccc(C(C)=O)c4)n3c2)c1` [Compound 545, N-[3-(3-acetylphenyl)-6-[3-methoxy-phenyl)imidazo [1,2-a]pyridin-8-yl]acetamide], the IC50 amounted to 3.05 µM.

For the molecule `COc1cncc(-c2cnc3sc(NCc4ccncc4)nn23)c1` [Compound 546, 5-(5-methoxy-3-pyridyl)-N-(4-pyridylmethyl) imidazo[2,1-b][1,3,4] thiadiazol-2-amine], the IC50 came to 0.932 µM.

In the case of `OC1CCC(Nc2nn3c(-c4ccc(F)c(Cl)c4)cnc3s2)CC1` (centres unmarked) [Compound 547, 4-[[5-(3-chloro-4-fluoro-phenyl)imidazo [2,1-b][1,3,4]thiadiazol-2-yl]amino] cyclohexanol], the IC50 is 4.06 µM.

`COc1ccc(-c2cnc3sc(NCCc4ccc(S(N)(=O)=O)cc4)nn23)cc1OC` [Compound 548, 4-[2-[[5-(3,4-dimethoxyphenyl)imidazo[2,1-b] [1,3,4]thiadiazol-2-yl]amino]ethyl]benzene-sulfonamide]: the IC50 was determined as 5.12 µM.

On to `COc1ccc(-c2cc(NC(C)=O)c3ncc(-c4cccc(C(C)=O)c4)n3c2)c(OC)c1` [Compound 549, N-[3-(3-acetylphenyl)-6-(2,4-dimethoxy-phenyl)imidazo [1,2-a]pyridin-8-yl]acetamide], for which the IC50 was found to be 2.5 µM.

`COc1ccc(-c2cnc3sc(NCCc4ccncc4)nn23)cc1OC` [Compound 550, 5-(3,4-dimethoxy-phenyl)-N-[2-(4-pyridyl)ethyl]imidazo [2,1-b][1,3,4] thiadiazol-2-amine]: the IC50 was found to be 3.14 µM.

With `c1cc(CNc2nn3c(-c4ccncc4)cnc3s2)ccn1` [Compound 551, 5-(4-pyridyl)-N-(4-pyridylmethyl) imidazo[2,1-b] [1,3,4]thiadiazol-2-amine], the IC50 stood at 2.65 µM.

Consider `COc1ccc(-c2cnc3sc(NCCc4ccncc4)nn23)cn1` [Compound 552, 5-(6-methoxy-3-pyridyl)-N-[2-(4-pyridyl)ethyl] imidazo[2,1-b] [1,3,4]thiadiazol-2-amine], for which the IC50 was found to be 2.03 µM.

Consider `NS(=O)(=O)c1ccc(CCNc2nn3c(-c4cccnc4)cnc3s2)cc1` [Compound 553, 4-[2-[[5-(3-pyridyl)imidazo [2,1-d][1,3,4]thiadiazol-2-yl]amino]ethyl] benzene-sulfonamide], for which the IC50 came to 1.88 µM.

As to `c1csc(CNc2nn3c(-c4ccc(N5CCOCC5)cc4)cnc3s2)c1` [Compound 554, 5-(4-morpholino-phenyl)-N-(2-thienylmethyl) imidazo[2,1-b] [1,3,4]thiadiazol-2-amine], the half-maximal inhibitory concentration (IC50) was 3.82 µM.

Regarding `COc1ccc(CNc2nn3c(-c4ccc(CO)cc4)cnc3s2)cc1` [Compound 555, [4-[2-[(4-methoxyphenyl)methylamino]imidazo[2,1-b] [1,3,4]thiadiazol-5-yl]phenyl] methanol], the IC50 stood at 2.81 µM.

In the case of `Clc1ccc(-c2cnc3sc(NCc4cccnc4)nn23)cc1` [Compound 556, 5-(4-chlorophenyl)-N-(3-pyridylmethyl) imidazo[2,1-b] [1,3,4]thiadiazol-2-amine], the IC50 is 3.66 µM.

Take `CC(=O)Nc1cccc(-c2cnc3sc(NCCc4ccncc4)nn23)c1` [Compound 557, N-[3-[2-[2-(4-pyridyl)ethyl-amino]imidazo [2,1-b][1,3,4]thiadiazol-5-yl]phenyl] acetamide]: the IC50 is 1.32 µM.

Regarding `CN(C)C(=O)c1cccc(-c2cnc3sc(NCCc4ccncc4)nn23)c1` [Compound 558, N,N-dimethyl-3-[2-[2-(4-pyridyl)ethyl-amino]imidazo [2,1-b][1,3,4]thiadiazol-5-yl]benzamide], the IC50 worked out at 0.721 µM.
